# Measurements: patent US20050197371A1, “Urea derivatives as PDGFR modulators” (Ambit Biosciences Corporation, priority 2003, published 2005)
# Biological target: T1, PDGFRB(DKIN) (PDGFR-β) (Homo sapiens, UniProt P09619)
# T1 construct: PDGFRB(DKIN)
# Assay: Phage-display competitive binding assay, PDGFRB(DKIN)
# Conditions: T7 phage displaying human PDGFR-β, DKIN construct; read-out: Binding Assay: PDGFRB(DKIN)
# Description: The term “ND” represents non-determined values.
# Briefly, T7 phage displaying human PDGFR-β were incubated with an affinity matrix coated with known PDGFR-β inhibitor in the presence of various concentrations of the soluble competitor molecules.
row,SMILES,Kd
1,CC(C)Oc1ccc(NC(=O)Nc2cc(C(C)(C)C)no2)cc1 [Compound G33],< 0.1 µM
2,CC(C)(C)c1cc(NC(=O)Nc2ccc(OCc3c(F)cccc3F)cc2)no1 [Compound G21],< 0.1 µM
3,COc1cccc(COc2ccc(NC(=O)Nc3cc(C(C)(C)C)on3)cc2)c1 [Compound G13],< 0.1 µM
4,CC1CCCN(CCOc2ccc(NC(=O)Nc3cc(C(C)(C)C)on3)cc2)C1 (centres unmarked) [Compound G44],> 10 µM
5,CC(C)(C)c1cc(NC(=O)Nc2ccc(OCC3CC3)cc2)no1 [Compound G37],< 0.1 µM
6,COc1cccc(CNC(=O)Nc2cc(C(C)(C)C)on2)c1 [Compound B3],0.1 to 1 µM
7,CC(C)(C)c1cc(NC(=O)Nc2ccc3c(c2)OCO3)no1 [Compound A56],1 to 10 µM
8,CC(C)(C)c1cc(NC(=O)Nc2ccc(OCCN3CCOCC3)cc2)no1 [Compound G40],1 to 10 µM
9,CCOC(=O)NN(C(=O)Nc1cc(C(C)(C)C)on1)c1ccc(OC)cc1 [Compound J13],> 10 µM
10,CC(Oc1ccc(NC(=O)Nc2cc(C(C)(C)C)on2)cc1)c1ccccc1 (centres unmarked) [Compound G17],0.1 to 1 µM
11,CC(C)(C)c1cc(NC(=O)Nc2ccc(OCc3ccccc3)cc2)no1 [Compound G31],< 0.1 µM
12,CC1CN(CCOc2ccc(NC(=O)Nc3cc(C(C)(C)C)on3)cc2)CCN1 (centres unmarked) [Compound G46],1 to 10 µM
13,CC(C)(C)c1cc(NC(=O)Nc2ccc(Cl)cc2)on1 [Compound A32],< 0.1 µM
14,COc1ccc(NC(=O)Nc2cc(C(C)(C)C)on2)cc1OC [Compound A55],1 to 10 µM
15,COc1ccc(N(C)C(=O)N(C)c2cc(C(C)(C)C)no2)cc1 [Compound J8],> 10 µM
16,C[S+]([O-])c1ccc(NC(=O)Nc2cc(C(C)(C)C)on2)cc1 (centres unmarked) [Compound A46],0.1 to 1 µM
17,CC(C)(C)c1cc(NC(=O)Nc2ccc(OC(F)(F)F)cc2)on1 [Compound A13],0.1 to 1 µM
18,CC(C)(C)c1cc(NC(=O)Nc2ccc(OCc3cccc(Cl)c3)cc2)no1 [Compound G11],< 0.1 µM
19,CN1CN(c2ccc(OCc3ccccc3)cc2)C(=O)N(c2cc(C(C)(C)C)on2)C1 [Compound E4],0.1 to 1 µM

# Now from value to molecule:
row,Kd,SMILES
1,0.1 to 1 µM,CC(C)(C)c1cc(NC(=O)Nc2ccc(NC(=O)c3cccc(OC(F)F)c3)cc2)no1 [Compound N25]
2,0.1 to 1 µM,Cc1nc(N)cc(Nc2ccc(NC(=O)Nc3cc(C(C)(C)C)on3)cc2)n1 [Compound O10]
3,0.1 to 1 µM,CC(C)(C)c1cc(NC(=O)Nc2ccc(NC(=O)c3cnn(-c4cccc(Cl)c4)c3Br)cc2)no1 [Compound N45]
4,1 to 10 µM,Cc1ccc(-c2cc(C(=O)Nc3ccc(NC(=O)Nc4cc(C(C)(C)C)on4)cc3)c(C)o2)cc1 [Compound N120]
5,< 0.1 µM,CC(C)(C)c1cc(NC(=O)Nc2ccc(NC(=O)c3cccc4nsnc34)cc2)no1 [Compound N109]
6,> 10 µM,CC(C)(C)c1cc(NC(=O)Nc2ccc(S(=O)(=O)Nc3ncccn3)cc2)no1 [Compound V3]
7,< 0.1 µM,Cc1cccc(C(=O)Nc2ccc(NC(=O)Nc3cc(C(C)(C)C)on3)cc2)n1 [Compound N121]
8,< 0.1 µM,CC(C)(C)c1cc(NC(=O)Nc2ccc(NC(=O)c3cc4cccc5c4n(c3=O)CC5)cc2)no1 [Compound N60]
9,0.1 to 1 µM,CC(C)(C)c1cc(NC(=O)Nc2ccc(C(=O)NCc3ccccc3)cc2)no1 [Compound N89]
10,0.1 to 1 µM,Cn1nc(C(F)(F)F)c(C(=O)Nc2ccc(NC(=O)Nc3cc(C(C)(C)C)on3)cc2)c1Cl [Compound N68]
11,0.1 to 1 µM,COc1cc(OC)nc(N(C)c2cccc(C(=O)Nc3ccc(NC(=O)Nc4ccon4)cc3)c2)n1 [Compound N53]
12,0.1 to 1 µM,CC(C)(C)c1cc(NC(=O)Nc2ccc(NC(=O)c3cc(Cl)cc(Cl)c3)cc2)no1 [Compound N29]
13,0.1 to 1 µM,Cn1c(SCC(=O)Nc2ccc(NC(=O)Nc3cc(C(C)(C)C)on3)cc2)nnc1-c1cccn(Cc2ccccc2)c1=O [Compound Z47]
14,0.1 to 1 µM,CC(C)(C)c1cc(NC(=O)Nc2ccc(NC(=O)C(N)Cc3ccccc3F)cc2)no1 (centres unmarked) [Compound N42]
15,1 to 10 µM,CC(C)(C)c1cc(NC(=O)Nc2ccc(NC(=O)c3c4ccccc4nc4ccccc34)cc2)no1 [Compound N148]
16,1 to 10 µM,CC(C)(C)c1cc(NC(=O)Nc2ccc(C(=O)NCc3ccc4c(c3)OCO4)cc2)no1 [Compound N97]
17,> 10 µM,NC(=O)c1c(NC(=O)Nc2ccc(Cl)c(Cl)c2)sc2c1CCCC2 [Compound Z56]
18,0.1 to 1 µM,Cc1ccncc1C(=O)Nc1ccc(NC(=O)Nc2cc(C(C)(C)C)on2)cc1 [Compound N104]
19,< 0.1 µM,CC(C)(C)c1cc(NC(=O)Nc2ccc(NC(=O)c3ccc4ncccc4c3)cc2)no1 [Compound N151]

row,Kd,SMILES
1,1 to 10 µM,COc1ccc(-c2noc(-c3ccc(NC(=O)Nc4cc(C(C)(C)C)on4)cc3)n2)c2ccccc12 [Compound P3]
2,1 to 10 µM,Cc1ccc(S(=O)(=O)Nc2ccc(NC(=O)Nc3cc(C(C)(C)C)on3)cc2)cc1 [Compound V2]
3,< 0.1 µM,CC(C)(C)c1cc(NC(=O)Nc2ccc(NC(=O)c3ccc4cnccc4n3)cc2)no1 [Compound N110]
4,0.1 to 1 µM,CC(C)(C)c1cc(NC(=O)Nc2ccc(NC(=O)CCc3ccccc3)cc2)no1 [Compound N96]
5,1 to 10 µM,COc1ccc(-c2cc(C(=O)Nc3ccc(NC(=O)Nc4cc(C(C)(C)C)on4)cc3)c(C)o2)cc1 [Compound N118]
6,< 0.1 µM,CC(C)(C)c1cc(NC(=O)Nc2ccc(Nc3nc(N)nc4[nH]cnc34)cc2)no1 [Compound O6]
7,1 to 10 µM,CC(C)(C)c1cc(C(=O)Nc2ccc(NC(=O)Nc3cc(C(C)(C)C)on3)cc2)n(-c2ccccc2)n1 [Compound N78]
8,0.1 to 1 µM,COc1cccc(-c2ccc(C(=O)Nc3ccc(NC(=O)Nc4cc(C(C)(C)C)on4)cc3)o2)c1 [Compound N105]
9,< 0.1 µM,Cc1nn(C)c(Cl)c1C(=O)Nc1ccc(NC(=O)Nc2cc(C(C)(C)C)on2)cc1 [Compound N116]
10,1 to 10 µM,CC(C)(C)c1cc(NC(=O)Nc2ccc(NC(=O)c3cnc(Cl)c(Cl)c3)cc2)no1 [Compound N123]
11,1 to 10 µM,C/C=C/C(=O)Nc1ccc(NC(=O)Nc2cc(C(C)(C)C)on2)cc1 [Compound N93]
12,< 0.1 µM,Cc1[nH]c(C(=O)Nc2ccc(NC(=O)Nc3cc(C(C)(C)C)on3)cc2)c(C)c1CCC(=O)O [Compound N39]
13,1 to 10 µM,CC(C)(C)c1cc(NC(=O)Nc2ccc(NC(=O)c3cnc4cc(C(F)(F)F)ccc4c3O)cc2)no1 [Compound N146]
14,1 to 10 µM,COc1cc(OC)nc(Oc2ccccc2C(=O)Nc2ccc(NC(=O)Nc3cc(C(C)(C)C)on3)cc2)n1 [Compound N70]
15,0.1 to 1 µM,Cc1ccc(CNc2ccc(NC(=O)Nc3cc(C(C)(C)C)on3)cc2)cc1 [Compound O9]
16,0.1 to 1 µM,CC(C)(C)c1cc(NC(=O)Nc2ccc(NC(=O)c3c(Cl)cccc3Cl)cc2)no1 [Compound N94]
17,< 0.1 µM,Cc1cnc(C(=O)Nc2ccc(NC(=O)Nc3cc(C(C)(C)C)on3)cc2)c(C(=O)O)n1 [Compound N160]
18,< 0.1 µM,Cn1cc(C(=O)Nc2ccc(NC(=O)Nc3cc(C(C)(C)C)on3)cc2)c2ccccc21 [Compound N119]
19,< 0.1 µM,CC(C)(C)c1cc(NC(=O)Nc2ccc(NC(=O)c3cn4nc(Cl)ccc4n3)cc2)no1 [Compound N9]

# Same assay, conditions: read-out: Binding Assay: PDGFRB(DKIN); T7 phage displaying human PDGFR-β, DKIN construct
row,Kd,SMILES
1,< 0.1 µM,CC(C)(C)c1cc(NC(=O)Nc2ccc(NC(=O)c3cc4ccccc4cn3)cc2)no1 [Compound N106]
2,< 0.1 µM,CC(C)(C)c1cc(NC(=O)Nc2ccc(NC(=O)c3cn4c(n3)sc3ccccc34)cc2)no1 [Compound N73]
